One assay deals with A375 (melanoma) cells. The assay can be described thus: Proliferation Assay (CellTiter-Glo). Format: cell-based. The following applies: 3 days incubation, CellTiter-Glo luminescence. Here is the method: A375 (melanoma), Colo-205 (colon cancer), Miapaca (pancreatic), HPAFII (pancreatic), sNF02.0 (neurofibromatosis type 1), sNF96.2 (neurofibromatosis type 1) and 8505 (Thyroid) cells were grown and maintained in RPMI-1640 medium containing 100 U/mL penicillin-streptomycin and 10% fetal bovine serum. Cells were in growth medium in 96-well opaque-walled clear bottom plates and incubated in the CO2 incubator overnight before treatment. Cells were treated with compounds diluted in DMSO and a 10 point 3-fold serial dilutions were done. Plates were placed in 37° C., 5% CO2 to incubate for 3 days. Before they were developed by adding 100 μL of CellTiter-Glo reagent (Promega) to the assay plate, plates were shaken briefly for 2 mins and allowed to incubate at room temperature for 10 mins. The bottom of the plates was pasted with white back seal and luminescence was recorded with Flexstation3 with setting of luminescence, integration time 500 ms.
Compounds of Formula (I), (II) and (III) are active in this assay as noted in Table 2.

The target of another assay is ERK2 (Homo sapiens (Human), UniProt P28482). The assay is described as follows: Active ERK1 and ERK2 Kinase Assay (Mobility Shift Assay). Format: biochemical. The following applies: activated ERK2, Mobility Shift Assay. Here is the method: Activated ERK1 and ERK2 activity was determined in a Mobility Shift Assay (MSA) format as follows: Compound and kinase solution were prepared with assay buffer (20 mM HEPES, 0.01% Triton X-100, 2 mM DTT, pH7.5) and mixed and incubated in for 30 mins at rt. ERK1 & ERK2 were then activated by the addition of F1-Substrate, ATP and metal solution and incubated for 1 h at rt. After 1 h, the reaction was terminated by the addition of […] of Termination Buffer (QuickScout Screening Assist MSA; Carna Biosciences) to the well. The reaction mixture was applied to LabChip™ system (PerkinElmer), and the product and substrate peptide peaks were separated, analyzed and quantitated. The kinase reaction is evaluated by the product ratio calculated from peak heights of product (P) and substrate(S) peptides (P/(P+S)).
Sequence of ERK2 (P28482 whole entry): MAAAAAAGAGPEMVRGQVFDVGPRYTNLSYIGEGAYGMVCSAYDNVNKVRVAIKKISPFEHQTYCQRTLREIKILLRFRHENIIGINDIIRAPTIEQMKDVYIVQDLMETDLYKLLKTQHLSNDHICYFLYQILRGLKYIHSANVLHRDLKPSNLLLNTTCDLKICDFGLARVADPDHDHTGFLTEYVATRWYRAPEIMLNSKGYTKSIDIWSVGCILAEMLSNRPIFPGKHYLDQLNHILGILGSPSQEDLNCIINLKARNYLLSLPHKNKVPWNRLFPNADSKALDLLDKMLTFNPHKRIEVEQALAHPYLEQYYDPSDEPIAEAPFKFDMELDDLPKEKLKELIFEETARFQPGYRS

The structures appear in SMILES notation.

A word on the IC50: it is the concentration that gives 50% inhibition.

For the compound `Cn1nc(-c2ccc(C3=CCN(C(=O)CN4CC[C@]5(CCN(c6ccc7[nH]nc(-c8ccc(C#N)c(C(F)(F)F)c8)c7c6)C5=O)C4)CC3)cc2)oc1=O` [Example 15], the IC50 in the assay on A375 (melanoma) cells was 0.5 to 1 µM; on ERK2, no more than 0.05 µM.
On the same counts, the results for `CNC(=O)c1cc(-c2n[nH]c3ccc(N4CC[C@]5(CCN(CC(=O)N6CC=C(c7ccc(-c8nn(C)c(=O)o8)cc7)CC6)C5)C4=O)cc23)ccc1F` [Example 16] are no more than 0.5 µM and no more than 0.05 µM.
On the same counts, the results for `Cn1cnc(-c2cnc(C3=CCN(C(=O)CN4CC[C@]5(CCN(c6ccc7[nH]nc(-c8ccc(F)cc8)c7c6)C5=O)C4)CC3)s2)n1` [Example 17] are no more than 0.5 µM and no more than 0.05 µM.
On the same counts, the results for `Cn1nc(-c2ccc(C3=CCN(C(=O)CN4CC[C@]5(CCN(c6ccc7[nH]nc(-c8ccc(F)cc8)c7c6)C5=O)C4)CC3)cc2)oc1=O` [Example 18] are no more than 0.5 µM and no more than 0.05 µM.
As to `COc1ccc(-c2n[nH]c3ccc(N4CC[C@]5(CCN(CC(=O)N6CC=C(c7ccc(-c8nn(C)c(=O)o8)cc7)CC6)C5)C4=O)cc23)cn1` [Example 19], the IC50 in the assay with A375 (melanoma) cells is no more than 0.5 µM; at ERK2 it was no more than 0.05 µM.
For `Cc1ccc(-c2n[nH]c3ccc(N4CC[C@]5(CCN(CC(=O)N6CC=C(c7ccc(-c8ncn(C)n8)cc7)CC6)C5)C4=O)nc23)cn1` [Example 20] the same measures were no more than 0.5 µM and no more than 0.05 µM.
On the same counts, the results for `COc1ccc(-c2n[nH]c3ccc(N4CC[C@]5(CCN(CC(=O)N6CC=C(c7ccc(-c8ncn(C)n8)cc7)CC6)C5)C4=O)nc23)cn1` [Example 21] are no more than 0.5 µM and no more than 0.05 µM.
On to `Cn1cnc(-c2ccc(C3=CCN(C(=O)CN4CC[C@]5(CCN(c6ccc7[nH]nc(C8CCOCC8)c7n6)C5=O)C4)CC3)cc2)n1` [Example 22, (S)-7-(2-(4-(4-(1-Methyl-1H-1,2,4-triazol-3-yl)phenyl)-5,6-dihydropyridin-1(2H)-yl)-2-oxoethyl)-2-(3-(tetrahydro-2H-pyran-4-yl)-1H-pyrazolo[4,3-b]pyridin-5-yl)-2,7-diazaspiro[4.4]nonan-1-one], for which the IC50 in the assay on A375 (melanoma) cells (Homo sapiens, A-375, 72 h) was no more than 0.5 µM; on ERK2, no more than 0.05 µM.
With `Cn1nc(-c2ccc(C3=CCN(C(=O)CN4CCC5(CCN(c6ccc7[nH]nc(C8CCOCC8)c7n6)C5=O)C4)CC3)cc2)oc1=O` (centres unmarked) [Example 23], the values for the IC50 in the assay with A375 (melanoma) cells and on ERK2 were no more than 0.5 µM and no more than 0.05 µM, respectively.
For `Cc1nc2cc(-c3n[nH]c4ccc(N5CC[C@]6(CCN(CC(=O)N7CC=C(c8ccc(-c9ncn(C)n9)cc8)CC7)C6)C5=O)nc34)ccc2o1` [Example 24] the same measures were no more than 0.5 µM and no more than 0.05 µM.
In the case of `CC(C)Oc1ccc(-c2n[nH]c3ccc(N4CC[C@]5(CCN(CC(=O)N6CC=C(c7ncc(-c8ncn(C)n8)s7)CC6)C5)C4=O)nc23)cn1` [Example 25], the IC50 in the assay with A375 (melanoma) cells was no more than 0.5 µM; at ERK2, no more than 0.05 µM.
As for `Cn1cnc(-c2ccc(C3=CCN(C(=O)CN4CC[C@]5(CCN(c6ccc7[nH]nc(C8=CCOCC8)c7n6)C5=O)C4)CC3)cc2)n1` [Example 26], the IC50 in the assay on A375 (melanoma) cells (Homo sapiens, A-375, 72 h) was no more than 0.5 µM; at ERK2 it was no more than 0.05 µM.
On the same counts, the results for `Cn1cnc(-c2ccc(C3=CCN(C(=O)CN4CC[C@]5(CCN(c6ccc7[nH]nc(-c8ccc(C#N)cc8)c7n6)C5=O)C4)CC3)cc2)n1` [Example 27] are no more than 0.5 µM and no more than 0.05 µM.
For `Cn1cnc(-c2ccc(C3=CCN(C(=O)CN4CC[C@]5(CCN(c6ccc7[nH]nc(-c8ccc(F)cn8)c7c6)C5=O)C4)CC3)cc2)n1` [Example 28, (S)-2-(3-(5-Fluoropyridin-2-yl)-1H-indazol-5-yl)-7-(2-(4-(4-(1-methyl-1H-1,2,4-triazol-3-yl)phenyl)-5,6-dihydropyridin-1(2H)-yl)-2-oxoethyl)-2,7-diazaspiro[4.4]nonan-1-one], the 50% inhibitory concentration (IC50) was no more than 0.5 µM in the assay on A375 (melanoma) cells (Homo sapiens, A-375, 72 h) and no more than 0.05 µM at ERK2.
On to `Cn1cnc(-c2ccc(C3=CCN(C(=O)CN4CC[C@]5(CCN(c6ccc7[nH]nc(-c8ccc(C#N)cn8)c7c6)C5=O)C4)CC3)cc2)n1` [Example 29], for which the IC50 was no more than 0.5 µM in the assay with A375 (melanoma) cells (Homo sapiens, A-375, 72 h) and no more than 0.05 µM at ERK2.
On the same counts, the results for `CC(C)n1cc(-c2n[nH]c3ccc(N4CC[C@]5(CCN(CC(=O)N6CC=C(c7ccc(-c8nn(C)c(=O)o8)cc7)CC6)C5)C4=O)cc23)cn1` [Example 31] are no more than 0.5 µM and no more than 0.05 µM.
For `Cn1nc(-c2ccc(C3=CCN(C(=O)CN4CC[C@]5(CCN(c6ccc7[nH]nc(C8=CCOCC8)c7c6)C5=O)C4)CC3)cc2)oc1=O` [Example 32] the same measures were no more than 0.5 µM and no more than 0.05 µM.
On the same counts, the results for `Cc1ncc(-c2n[nH]c3ccc(N4CC[C@]5(CCN(CC(=O)N6CC=C(c7ccc(-c8nn(C)c(=O)o8)cc7)CC6)C5)C4=O)cc23)s1` [Example 33] are no more than 0.5 µM and no more than 0.05 µM.
Turning to `Cn1cnc(-c2cnc(C3=CCN(C(=O)CN4CC[C@]5(CCN(c6ccc7[nH]nc(C8CCOCC8)c7n6)C5=O)C4)CC3)s2)n1` [Example 34], the IC50 with A375 (melanoma) cells (Homo sapiens, A-375, 72 h) was no more than 0.5 µM; at ERK2, no more than 0.05 µM.
As for `Cc1ccc(-c2n[nH]c3ccc(N4CC[C@]5(CCN(CC(=O)N6CC=C(c7ccc(-c8nn(C)c(=O)o8)cc7)CC6)C5)C4=O)nc23)cn1` [Example 35], the IC50 was no more than 0.5 µM in the assay on A375 (melanoma) cells (Homo sapiens, A-375, 72 h) and no more than 0.05 µM on ERK2.
In the case of `COc1ccc(-c2n[nH]c3ccc(N4CC[C@]5(CCN(CC(=O)N6CC=C(c7ncc(-c8ncn(C)n8)s7)CC6)C5)C4=O)nc23)cn1` [Example 36], the IC50 was no more than 0.5 µM in the assay on A375 (melanoma) cells (Homo sapiens, A-375, 72 h) and no more than 0.05 µM on ERK2.
On the same counts, the results for `Cn1cc(-c2n[nH]c3ccc(N4CC[C@]5(CCN(CC(=O)N6CC=C(c7ccc(-c8ncn(C)n8)cc7)CC6)C5)C4=O)nc23)cn1` [Example 37] are no more than 0.5 µM and no more than 0.05 µM.
Turning to `Cc1cc(-c2n[nH]c3ccc(N4CC[C@]5(CCN(CC(=O)N6CC=C(c7ccc(-c8ncn(C)n8)cc7)CC6)C5)C4=O)nc23)ccn1` [Example 38], the half-inhibitory concentration (IC50) in the assay on A375 (melanoma) cells (Homo sapiens, A-375, 72 h) is no more than 0.5 µM; on ERK2, no more than 0.05 µM.
On the same counts, the results for `Cn1ccc(-c2n[nH]c3ccc(N4CC[C@]5(CCN(CC(=O)N6CC=C(c7ccc(-c8ncn(C)n8)cc7)CC6)C5)C4=O)nc23)n1` [Example 39] are no less than 1 µM and 0.05 to 0.25 µM.
On to `CC(C)n1cc(-c2n[nH]c3ccc(N4CC[C@]5(CCN(CC(=O)N6CC=C(c7ccc(-c8ncn(C)n8)cc7)CC6)C5)C4=O)nc23)cn1` [Example 40], for which the IC50 with A375 (melanoma) cells (Homo sapiens, A-375, 72 h) is no more than 0.5 µM; at ERK2 it was no more than 0.05 µM.
Take `CC(C)n1cc(-c2n[nH]c3ccc(N4CC[C@]5(CCN(CC(=O)N6CCN(c7ccc(-c8ncn(C)n8)cc7)CC6)C5)C4=O)nc23)cn1` [Example 41]: the results for the IC50 in the assay on A375 (melanoma) cells and on ERK2 were no more than 0.5 µM and no more than 0.05 µM, respectively.
On to `Cn1cnc(-c2ccc(C3=CCN(C(=O)CN4CC[C@]5(CCN(c6ccc7[nH]nc(N8CCC9(CC8)COC9)c7n6)C5=O)C4)CC3)cc2)n1` [Example 42, (S)-2-(3-(2-oxa-7-azaspiro[3.5]nonan-7-yl)-1H-pyrazolo[4,3-b]pyridin-5-yl)-7-(2-(4-(4-(1-methyl-1H-1,2,4-triazol-3-yl)phenyl)-3,6-dihydropyridin-1(2H)-yl)-2-oxoethyl)-2,7-diazaspiro[4.4]nonan-1-one], for which the IC50 with A375 (melanoma) cells (Homo sapiens, A-375, 72 h) is no less than 1 µM; at ERK2 it was no less than 0.25 µM.
As for `Cc1ccc(-c2n[nH]c3ccc(N4CC[C@]5(CCN(CC(=O)N6CC=C(c7ncc(-c8ncn(C)n8)s7)CC6)C5)C4=O)nc23)cn1` [Example 43], the IC50 with A375 (melanoma) cells is no more than 0.5 µM; on ERK2, no more than 0.05 µM.

Values taken from US10934304B2, “Spirocyclic compounds” (Recurium IP Holdings, LLC, priority 2016, dated 2021).
